Read-outs that look alike come from different tables or passages of the source.
System: egg-nidation in rats
Experiment: Nidation inhibition in rats (egg-nidation inhibitory action, indirect measure of anti-prolactin activity)
Type: in vivo, Sprague Dowley rats
Conditions: Rattus norvegicus, po, read-out: Nidation inhibition in rats, ED50
Description: Pregnant Sprague Dowley rats weighing 200-250 g were used. The compounds to be tested, dissolved in diluted mineral acids, were administered orally to groups from six to eight rats on day 5 of pregnancy. The animals were sacrificed on day 14 and the uteri were examined. The absence of implantation sites was taken as the criterion of anti-prolactin activity. Several doses were tested for the ED50 evaluation. As reference standard Bromocryptine was used.

[1] = pregnant rats, given on day 5 of pregnancy, absence of implantation sites on day 14

Structure (SMILES)	ED50 [mg/kg]	ED50 [1] [mg/kg]
CC(C)C[C@H]1C(=O)N2CCC[C@H]2[C@]2(O)O[C@](NC(=O)[C@@H]3C=C4c5cccc6[nH]c(Br)c(c56)C[C@H]4N(C)C3)(C(C)C)C(=O)N12 [2-bromo-α-ergocryptine, reference compound]	5.7	–
Cc1cc(NC(=O)[C@@H]2C[C@@H]3c4cccc5[nH]cc(c45)C[C@H]3N(C)C2)nc(C)n1 [Example 1, N-(2', 6'-dimethyl-4'-pyrimidyl)-6-methylergoline-8β-carboxamide]	–	1.8
Cc1cc(NC(=O)[C@@H]2C[C@@H]3c4cccc5[nH]c(C)c(c45)C[C@H]3N(C)C2)nc(C)n1 [Example 4, N-(2',6'-dimethyl-4'-pyrimidyl)-2,6-dimethylergoline-8β-carboxamide]	–	0.5 to 1
CCCN1C[C@H](C(=O)Nc2cc(C)nc(C)n2)C[C@@H]2c3cccc4[nH]cc(c34)C[C@H]21 [Example 5, N-(2',6'-dimethyl-4'-pyrimidyl)-6-propylergoline-8β-carboxamide]	–	0.3
